In patent publication US12492373B2, “Production method for nerve tissue” (Racthera Co., Ltd., priority 2014, dated 2025):

How the values were obtained:
[1] = tested on: human iPS cells (1231A3 strain); assay: Immunostaining for pluripotent stem cell marker Oct3/4 after preconditioning; assay type: cell-based; conditions: 1 day; SB431542 5 μM, LDN193189 100 nM, SAG 300 nM, or SB431542 5 μM and LDN193189 100 nM; positive = intensity not less than 2 times background
Description: Human iPS cells (1231A3 strain) were subjected to feeder-free culturing according to the method described in Example 1 in StemFit medium until one day before subconfluence. The human iPS cells one day before subconfluence were subjected to feeder-free culturing in the presence of SB431542 (TGFβR inhibitor, 5 μM), LDN193189 (BMPR inhibitor, 100 nM), SAG (Shh activating substance, 300 nM), or TGFβR inhibitor and BMPR inhibitor (SB431542 5 μM, and LDN193189 100 nM) (step 1: preconditioning treatment), or in the absence thereof (step 1: without preconditioning) for 1 day. The obtained cells were each fixed with 4% para-formaldehyde, and immunostaining for Oct3/4, which is one of the pluripotent stem cell markers, was performed and the immunostained cells were subjected to bright field observation and fluorescence image observation under an inverted fluorescence microscope (BIOREVO, KEYENCE).

[2] = tested on: human iPS cells (1231A3 strain); assay: Neural tissue / neuroepithelium formation in cell aggregates, bright field observation; assay type: cell-based; conditions: for cell aggregate growth and neuroepithelium formation: step 1 for 1 day: SB431542 5 μM or LDN193189 100 nM, both U-bottom plate and F-bottom culture dish, day 19
Description: The above human iPS cells were treated with the cell dispersion solution by using TrypLE Select (Life Technologies), further dispersed into single cells by pipetting operation, and the above human iPS cells dispersed into single cells were suspended in 100 μl of a serum-free medium at 1.2×10^4 cells per well of a non-cell-adhesive 96-well culture plate ([…], manufactured by SUMITOMO BAKELITE), and subjected to suspension culturing at 37° C., 5% CO2. As the serum-free medium (gfCDM+KSR) therefor, a serum-free medium which is a 1:1 mixture of F-12 medium and IMDM medium supplemented with 10% KSR, 450 μM 1-monothioglycerol, 1× Chemically defined lipid concentrate was used. At the time of the start of suspension culturing (day 0 after the start of suspension culturing, start of step 2), Y27632 (final concentration 20 μM) was added to the above serum-free medium. By day 2 after the start of suspension culturing, cell aggregates were formed under both conditions with preconditioning and conditions without preconditioning (step 2 completed, step 3 start). On day 3 after the start of suspension culturing, a serum-free medium (50 μl) free of Y27632 was added. On day 6 or later after the start of suspension culturing, a half amount of the medium was changed to the above serum-free medium free of Y27632 once per 2-4 days. In the half-medium change operation, a half volume, namely 75 μl, of the medium in the culture vessel was discarded, the above fresh serum-free medium (75 μl) was added to make the total medium amount 150 μl. […]
At the time of the start of suspension culturing (day 0 after the start of suspension culturing, start of step 2), the cells were cultured under the following 2 conditions including condition 1 and condition 2. As condition 1(+SAG), at the time of the start of suspension culturing, Y27632 (final concentration 20 μM) and SAG (Shh signal transduction pathway activating substance, 300 nM) were added to the above serum-free medium. As condition 2(−SAG), at the time of the start of suspension culturing, Y27632 (final concentration 20 μM) was added to the above serum-free medium and SAG was not added. By day 2 after the start of suspension culturing, cell aggregates were formed (step 2 completed, step 3 start) under both conditions. On day 3 after the start of suspension culturing, a medium (50 μl) free of Y27632, SAG and containing human recombinant BMP4 (manufactured by R&D) was added such that the final concentration of exogenous human recombinant BMP4 was 1.5 nM (55 ng/ml). On day 6 after the start of suspension culturing, a half amount of the medium was changed with a serum-free medium free of Y27632, SAG and human recombinant BMP4. Thereafter, a half amount of the medium was changed, once every 2-4 days, with the above serum-free medium free of Y27632, SAG, and human recombinant BMP4.
The thus-prepared cells were subjected to bright field observation on day 18 after the start of suspension culturing under an inverted microscope (KEYENCE) (FIG. 15).
At the time of the start of suspension culturing (day 0 after the start of suspension culturing, start of step 2), the cells were cultured under the following 2 conditions including condition 1 and condition 2. As condition 1(+SAG), at the time of the start of suspension culturing, Y27632 (final concentration 20 μM) and SAG (Shh signal transduction pathway activating substance, final concentration 30 nM) were added to the above serum-free medium. As condition 2(−SAG), at the time of the start of suspension culturing, Y27632 (final concentration 20 μM) was added to the above serum-free medium and SAG was not added. By day 2 after the start of suspension culturing, cell aggregates were formed under both conditions (step 2 completed, step 3 start). […]

[3] = LDN193189 100 nM 1 day in step 1, day 23
[4] = step 1 for 1 day: SB431542 5 μM, LDN193189 100 nM or SAG 300 nM, SAG 300 nM in step 2, with or without BMP4 1.5 nM in step 3, day 23

Compound	Oct3/4 immunostaining of preconditioned cells [1]	cell aggregate containing a neural tissue (maintained, neural tissue not less than 10%) [2, 3]	cell aggregate with a bad form (collapsed, neural tissue not more than 3%) [2, 3]	cell aggregate with a medium level form (maintained, neural tissue not more than 10%) [2, 3]	neural tissue formation in step 3 [2, 3]	cell aggregate growth and neuroepithelium formation ([2]; SAG 300 nM in step 2)	cell aggregate and neural tissue formation [2, 4]	cell aggregate and neural tissue formation ([2]; step 1: SAG 300 nM for 24-144 hr, co-presence of A83-01 0.5 μM for the last 24 hr, SAG 30 nM added or not in step 2, day 16)	cell aggregate and neural tissue formation ([2]; step 1: SAG 300 nM for 48 or 72 hr, or A83-01 0.5 μM and SAG 300 nM for 24, 48 or 72 hr, SAG 30 nM added or not added in step 2, BMP4 1.5 nM on day 3, day 17)
c1ccc2c(-c3cnn4cc(-c5ccc(N6CCNCC6)cc5)cnc34)ccnc2c1 [LDN193189, 4-[6-(4-piperazin-1-ylphenyl)pyrazolo[1,5-a]pyrimidin-3-yl]quinoline]	Oct3/4-positive	about 100%	about 0%	about 0%	a neural tissue having a neuroepithelial structure was formed	a cell aggregate grew and neuroepithelium was formed	a neural tissue can be formed efficiently	–	–
CNC1CCC(N(Cc2cccc(-c3ccncc3)c2)C(=O)c2sc3ccccc3c2Cl)CC1 (centres unmarked) [SAG]	Oct3/4-positive	–	–	–	–	–	a neural tissue can be formed efficiently	a neural tissue could be formed efficiently	a neural tissue can be formed efficiently
NC(=O)c1ccc(-c2nc(-c3ccc4c(c3)OCO4)c(-c3ccccn3)[nH]2)cc1 [SB431542, 4-(5-benzol[1,3]dioxol-5-yl-4-pyridin-2-yl-1H-imidazol-2-yl)-benzamide]	Oct3/4-positive	–	–	–	–	a cell aggregate grew and neuroepithelium was formed	a neural tissue can be formed efficiently	–	–
